Patent US11746103B2, “ALK-5 inhibitors and uses thereof” (Sumitomo Pharma Oncology, Inc., priority 2020, dated 2023)
pIC50: −log10 of the molar value. Entries after “also recorded” stand apart in the source; their conditions may differ.

What was measured:
EMT6 tumors = assay: Combination of EX-11 and abraxane in EMT6 TNBC syngeneic model; format: in vivo, mouse; settings: abraxane 30 mg/kg IP Q7d; EX-11 150 mg/kg PO BID
Excerpt: Abraxane (product of Bristol Myers Squibb) was purchased from St Josef Hospital (Freiburg, Germany). The vehicle for abraxane was 0.9% NaCl.

ES-2-luc cells = assay: Cachexia model (ES-2 clear cell carcinoma); format: in vivo, mouse; settings: 150 mg/Kg BID
Excerpt: TGF-β1 signaling regulates ovarian cancer progression during initial carcinogenesis, tumor dissemination, and reestablishment of ascites through peritoneal cavity. Clear cell carcinoma is a specifically aggressive and therapy-resistant subtype of epithelial ovarian cancer. ES-2 clear cell carcinoma in vivo model was used to test efficacy of EX-11 in reducing ovarian tumor burden as determined by ascites fluid volume assessment. Because ALK5 signaling can regulate muscle growth and wasting, the efficacy of EX-11 in preventing ovarian cancer-induced cachexia was tested. Muscle health was assessed using histological evaluation of heart muscle tissue, and by comparison of gross weight of hind limb between the different treatment groups.
Sixteen-week-old female athymic nude mice were injected with two million ES-2-luc cells. […]
Mortality was recorded for animals found dead in the cage, and for the animals sacrificed based on humane end point based on main three criteria—loss of mobility and response, wasting with pronounced ascites fluid buildup, and palpable drop in body temperature (animals were assessed as cold to touch when handled in gloves).
On study day 22, the remaining surviving animals in the vehicle group were determined moribund, and the study was terminated based on humane end point criteria. […]

KGN cells (FOXL2 C134W) = assay: FOXL2 cell viability assay (Cell Titer Glo), KGN; format: cell-based, human
Method: EX-11 was submitted to a cell viability assay in KGN and COV434 cell lines. KGN cells are derived from FOXL2^C134W AGCT of a person with a recurrent metastatic GCT. COV434 cells are derived from FOXL2WT JGCT of a person with a recurrent metastatic GCT. The cells were seeded in triplicate in 96 well culture plates and treated with nine, 3-fold dilutions of EX-11 or DMSO for 6 days (KGN) or 3 days (Cov434), which represented 3 cell doublings, respectively. Viability was assessed by Cell Titer Glo (Promega).

[1] = system: human CD4+CD45RA+ naïve T cells; assay: In vitro Treg differentiation study; format: cell-based; settings: CD3/CD28+IL2+TGFβ, 5 days
Method: The effect of EX-11 on Treg differentiation was evaluated using human CD4^+CD45RA^+ naïve T cells from Lonza. CD4^+/CD45RA^+ naïve T cells were treated with EX-11, CD3/CD28 ([…] Technologies) and 10 ng/ml of IL-2 (Thermo Fisher Scientific) with or without 5 ng/ml TGFβ (R&D Systems) in ImmunoCult™-XF T cell expansion medium for 5 days. Flow cytometry was performed using anti-human FoxP3 staining kit (BD biosciences) to evaluate the frequency of CD4^+CD25^+Foxp3^+ Treg cells.

[2] = system: bleomycin-induced lung fibrosis; assay: Bleomycin-induced lung fibrosis study; format: in vivo, mouse
Excerpt: Fibrosis, the formation of excess connective tissue causing stromal hardening and scar formation is a hallmark of cancer. Up to 20% of cancers are linked to chronic, inflammation-related fibrosis, including hepatocellular, gastric, esophageal, head and neck, colon, pancreatic, cervix, and vulvar cancers. The contribution of fibrosis for early cancer development remains unclear; however, in some advanced solid tumors it is believed that fibrotic tissues act like a barrier, preventing therapeutic agents like chemotherapy or biologics from penetrating the tumor tissue. Additionally, strong fibrotic tissue is thought to contribute to excluding immune cells from entering the tumor core, creating immune excluded or immune desert phenotypes. To evaluate the anti-fibrotic properties of Ex-11, a prophylactic model of bleomycin-induced lung fibrosis in male C57BL/6 mice was utilized, and various endpoints evaluated.
All mice in this study were 8-week-old male C57BL/6 mice purchased from Taconic. On Day −2 prior to bleomycin administration, all animals were weighed and distributed into groups with 10 mice each (Table 18) such that each group of animals contained animals of similar body weights.
On day 0, animals were treated with 1.5 U/kg bleomycin (Blenoxane catalog number NDC 61703-323-22, Hospira Pharmaceutical) intratracheally, except Group 1, which was administered normal saline via oropharyngeal route to serve as the healthy naïve control group. Prophylactic treatment was administered from one day prior to bleomycin administration to day 21 post bleomycin administration. On Day 21, only the morning dose was administered. Animals were harvested on day 21 and lung weights were measured. Body weights of all mice was recorded at least three times a week beginning on Day −2 and ending on the day of harvest, Day 21. Pirfenidone was used as positive control compound, as it is an FDA-approved drug for the treatment of idiopathic pulmonary fibrosis (IPF) in humans. All compounds were prepared in 10% Tween-20 in water; a homogenous suspension was formulated using a magnetic stir bar.
At the end of the study, total lung tissues were weighed and fixed for histological examination, which was conducted by a trained pathologist blinded to the treatment groups. Specifically, whole lungs from each mouse were paraffin-embedded in a single block. Two slides from each block were sectioned to the depth of the mainstem bronchi (near the center of each lobe) and stained with either hematoxylin and eosin (H&E) or Masson's trichrome (MT). Glass slides were evaluated using light microscopy by a board-certified veterinary pathologist. Lung sections were scored according to the methods described below, evaluating five randomly chosen fields in each tissue. Fixed lungs were sectioned, and consecutive tissue sections were stained with H&E or MT. Various pathological scoring parameters were used to determine the average Ashcroft score, as well as average inflammation and collagen deposition indicating fibrosis.
Parameter of scoring formalin fixed lung sections:
Modified Ashcroft Score: H&E-stained lung sections were scored according to the modified Ashcroft scale. Scores for five representative 200× microscopic fields per sample were averaged to obtain a mean score for each animal. […]

Cc1cccc2c(Nc3ccnc(Nc4cccc(N5CCOCC5)c4)n3)cnnc12 [EX-11, N4-(8-methylcinnolin-4-yl)-N2-(3-morpholinophenyl)pyrimidine-2,4-diamine]
tumor volume compared to vehicle (EMT6 tumors): did not show efficacy compared to vehicle
ascites fluid volume compared to vehicle (ES-2-luc cells): reduction in total fluid volume; also recorded: reduced ascites fluid volume
whole hind limb weight compared to vehicle (ES-2-luc cells): recorded higher; also recorded: improved hind limb weight retention
sensitivity of KGN cells relative to COV434 cells (KGN cells (FOXL2 C134W)): > 70 fold
pIC50 (KGN cells (FOXL2 C134W); Homo sapiens, 144 h, KGN cells, 6 days): 6.85
Treg frequency (CD4+CD25+Foxp3+ Treg cells as percentage of cells not treated with TGFβ) ([1]; 30 nM): 480%
Treg frequency (CD4+CD25+Foxp3+ Treg cells as percentage of cells not treated with TGFβ) ([1]; 300 nM): 342%
Treg frequency (CD4+CD25+Foxp3+ Treg cells as percentage of cells not treated with TGFβ) ([1]; 3000 nM): 126%
body weight loss ([2]; 75 mg/kg twice a day): No severe weight loss of over 5-10%
average Ashcroft score ([2]; H&E, vs bleomycin/vehicle): highly statistically significant reduction in the average score
average lung inflammation score ([2]; H&E, vs bleomycin/vehicle): highly statistically significant reduction in the average score
average lung fibrosis/collagen deposition score ([2]; Masson's trichrome, vs bleomycin/vehicle): highly statistically significant reduction in the average score
lung weight normalized to total animal weight (lung weight index) ([2]; day 21, vs bleomycin/vehicle): highly statistically significant
total lung weight ([2]; day 21, vs bleomycin/vehicle): significant decrease in lung weight
